Measurements: patent publication US12018016B2, “Aryl sulfonyl (hydroxy) piperidines as CCR6 inhibitors” (CHEMOCENTRYX, INC., priority 2021, dated 2024)

These compounds were tested against T1, human CCR6 (Homo sapiens, UniProt P51684) (assay: Migration assay (chemotaxis, ChemoTX)). Settings: hCCR6-transfected Ba/F3 cells in human serum, migration to recombinant human CCL20 10 nM, 37° C. 45 minutes; read-out: Potency (IC50 value in the migration assay).
T1 construct: expressed in transfected cells; host or cells: Ba/F3 cells (mouse pro-B line)
T1 sequence (P51684 1-374): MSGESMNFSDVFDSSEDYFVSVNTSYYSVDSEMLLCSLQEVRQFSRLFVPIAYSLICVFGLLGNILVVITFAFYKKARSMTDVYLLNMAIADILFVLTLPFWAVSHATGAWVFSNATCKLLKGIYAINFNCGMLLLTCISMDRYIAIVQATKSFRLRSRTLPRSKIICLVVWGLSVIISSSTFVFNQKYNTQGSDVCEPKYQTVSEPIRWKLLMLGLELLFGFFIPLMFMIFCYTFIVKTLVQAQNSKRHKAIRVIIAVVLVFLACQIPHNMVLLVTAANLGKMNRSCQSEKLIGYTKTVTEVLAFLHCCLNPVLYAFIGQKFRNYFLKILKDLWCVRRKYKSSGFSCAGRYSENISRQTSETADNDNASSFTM
Assay type: cell-based
Source text: A chemotaxis assay can be used to determine the efficacy of potential receptor antagonists at blocking the migration mediated through chemokine receptors, such as CCR6. This assay is routinely performed using the ChemoTX® microchamber system with a 5-μm pore-sized polycarbonate membrane. Chemokine receptor-expressing cells are required for such an assay. In this case, Ba/F3 cells (Palacios et al., Nature, 309:126, 1984) transfected with the gene for human CCR6 under control of the CMV promotor were used. To begin such an assay, hCCR6-transfected Ba/F3 cells are first grown for 24 hr in medium supplemented with sodium butyrate, which increases CCR6 transcription via the CMV promotor. The prepared Ba/F3 cells, are collected by centrifugation at 400×g at room temperature, then suspended at 4 million/ml in human serum. The compound being tested is serially diluted from a maximum final concentration of 1 μM (or an equivalent volume of its solvent (DMSO)) and is then added to the cell/serum mixture. Separately, recombinant human CCL20 (MIP-3α/LARC) at its EC50 concentration (10 nM) is placed in the lower wells of the ChemoTX® plate. The 5-μm (pore size) polycarbonate membrane is placed onto the plate, and 20 μL of the cell/compound mixture is transferred onto each well of the membrane. The plates are incubated at 37° C. for 45 minutes, after which the polycarbonate membranes are removed and 5 μl of the DNA-intercalating dye CyQUANT (Invitrogen, Carlsbad, CA) is added to the lower wells. The amount of fluorescence, corresponding to the number of migrated cells, is measured using a Spectrafluor Plus plate reader (TECAN, San Jose, CA).
For `CC(C)(O)C1CN(c2ccc(-c3ccc(S(=O)(=O)N4CC[C@@H](Nc5ccc(C(F)(F)F)cn5)[C@@H](O)C4)cc3)cn2)C1` [Compound 92], the IC50 was < 1 nM. In the case of `O=S(=O)(c1ccc(-c2ccc(N3CCOCC3)nc2)cc1)N1CC[C@@H](Nc2ccc(C(F)(F)F)cn2)[C@@H](O)C1` [Compound 89, (3S,4R)-1-((4-(6-morpholinopyridin-3-yl)phenyl)sulfonyl)-4-((5-(trifluoromethyl)pyridin-2-yl)amino)piperidin-3-ol], the IC50 is reported as < 1 nM. `CN(C)c1cc(-c2ccc(S(=O)(=O)N3CC[C@@H](Nc4ccc(C(F)(F)F)cn4)[C@@H](O)C3)cc2)ccn1` [Compound 124] showed an IC50 of 1 to 10 nM. With `Cc1ncc(C(N)=O)cc1-c1ccc(S(=O)(=O)N2CC[C@@H](Nc3ccc(C(F)(F)F)cn3)[C@@H](O)C2)cc1` [Compound 183] the IC50 was < 1 nM. For `Cc1c(-c2ccc(S(=O)(=O)N3CC[C@@H](Nc4ccc(C(F)(F)F)cn4)[C@@H](O)C3)cc2)ccc2[nH]ncc12` [Example 26, (3S,4R)-1-((4-(4-methyl-1H-indazol-5-yl)phenyl)sulfonyl)-4-((5-(trifluoromethyl)pyridin-2-yl)amino)piperidin-3-ol], the IC50 was < 1 nM. `Cc1cnc(C(N)=O)cc1-c1ccc(S(=O)(=O)N2CC[C@@H](Nc3ccc(C(F)(F)F)cn3)[C@@H](O)C2)cc1` [Example 20, 4-(4-(((3S,4R)-3-Hydroxy-4-((5-(trifluoromethyl)pyridin-2-yl)amino)piperidin-1-yl)sulfonyl)phenyl)-5-methylpicolinamide] was tested, and the IC50 was < 1 nM. Work on `Nc1cc(-c2ccc(S(=O)(=O)N3CC[C@@H](Nc4ccc(C(F)(F)F)cn4)[C@@H](O)C3)cc2)ccn1` [Compound 126] yielded an IC50 of 1 to 10 nM. Work on `CNc1cc(-c2ccc(S(=O)(=O)N3CC[C@@H](Nc4ccc(C(F)(F)F)cn4)[C@@H](O)C3)cc2)ccn1` [Compound 125] yielded an IC50 of 1 to 10 nM. `N#Cc1cc(C(F)(F)F)cnc1N[C@@H]1CCN(S(=O)(=O)c2ccc(-c3ccnc(C(N)=O)c3)cc2)C[C@@H]1O` [Compound 85, 4-(4-(((3S,4R)-4-((3-cyano-5-(trifluoromethyl)pyridin-2-yl)amino)-3-hydroxypiperidin-1-yl)sulfonyl)phenyl)picolinamide] showed an IC50 of 10 to 1000 nM. For `O=C(NO)c1cc(-c2ccc(S(=O)(=O)N3CC[C@@H](Nc4ccc(C(F)(F)F)cn4)[C@@H](O)C3)cc2)ccn1` [Compound 74, N-hydroxy-4-(4-(((3S,4R)-3-hydroxy-4-((5-(trifluoromethyl)pyridin-2-yl)amino)piperidin-1-yl)sulfonyl)phenyl)picolinamide], the IC50 was 1 to 10 nM. In the case of `Cc1c(-c2ccc(S(=O)(=O)N3CC[C@@H](Nc4ccc(C(F)(F)F)cn4)[C@@H](O)C3)cc2)c(C)[n+]([O-])c2[nH]ccc12` [Example 62, 5-(4-(((3S,4R)-3-hydroxy-4-((5-(trifluoromethyl)pyridin-2-yl)amino)piperidin-1-yl)sulfonyl)phenyl)-4,6-dimethyl-1H-pyrrolo[2,3-b]pyridine 7-oxide], the IC50 is reported as < 1 nM. With `Cc1c(-c2ccc(S(=O)(=O)N3CC[C@@H](Nc4ccc(C(F)(F)F)cn4)[C@@H](O)C3)cc2)ccnc1C(N)=O` [Example 6, 4-(4-(((3S,4R)-3-Hydroxy-4-((5-(trifluoromethyl)pyridin-2-yl)amino)piperidin-1-yl)sulfonyl)phenyl)-3-methylpicolinamide] the IC50 was < 1 nM. In the case of `N[C@H]1C[C@H](Nc2ccc(-c3ccc(S(=O)(=O)N4CC[C@@H](Nc5ccc(C(F)(F)F)cn5)[C@@H](O)C4)cc3)cn2)C1` [Compound 94], the IC50 is reported as < 1 nM. In the case of `N#Cc1n[nH]c2c(F)cc(-c3ccc(S(=O)(=O)N4CC[C@@H](Nc5ccc(C(F)(F)F)cn5)[C@@H](O)C4)cc3)cc12` [Compound 77, 7-fluoro-5-(4-(((3S,4R)-3-hydroxy-4-((5-(trifluoromethyl)pyridin-2-yl)amino)piperidin-1-yl)sulfonyl)phenyl)-1H-indazole-3-carbonitrile], the IC50 is reported as < 1 nM. With `Nc1cncc(-c2ccc(S(=O)(=O)N3CC[C@@H](Nc4ccc(C(F)(F)F)cn4)[C@@H](O)C3)cc2)c1` [Compound 110] the IC50 was < 1 nM. Work on `N#Cc1cc(-c2ccc(S(=O)(=O)N3CC[C@@H](Nc4ccc(C(F)(F)F)cn4)[C@@H](O)C3)cc2)cnn1` [Compound 199] yielded an IC50 of 1 to 10 nM. With `COc1cc(-c2ccc(S(=O)(=O)N3CC[C@@H](Nc4ccc(C(F)(F)F)cn4)[C@@H](O)C3)cc2)cc2cn[nH]c(=O)c12` [Compound 79, 6-(4-(((3S,4R)-3-hydroxy-4-((5-(trifluoromethyl)pyridin-2-yl)amino)piperidin-1-yl)sulfonyl)phenyl)-8-methoxyphthalazin-1(2H)-one] the IC50 was < 1 nM. For `Cc1cc(-c2ccc(S(=O)(=O)N3CC[C@@H](Nc4ccc(C(F)(F)F)cn4)[C@@H](O)C3)cc2)ccn1` [Compound 163], the IC50 was < 1 nM. `O=S(=O)(c1ccc(-c2ccnc(CO)c2)cc1)N1CC[C@@H](Nc2ccc(C(F)(F)F)cn2)[C@@H](O)C1` [Example 10, (3S,4R)-1-((4-(2-(hydroxymethyl)pyridin-4-yl)phenyl)sulfonyl)-4-((5-(trifluoromethyl)pyridin-2-yl)amino)piperidin-3-ol] was tested, and the IC50 was 1 to 10 nM. `COc1c(-c2ccc(S(=O)(=O)N3CC[C@@H](Nc4ccc(C(F)(F)F)cn4)[C@@H](O)C3)cc2)cnc2[nH]cc(C#N)c12` [Compound 118] was tested, and the IC50 was < 1 nM. `O=S(=O)(c1ccc(-c2cnc3[nH]ccc3c2F)cc1)N1CC[C@@H](Nc2ccc(C(F)(F)F)cn2)[C@@H](O)C1` [Compound 119] was tested, and the IC50 was < 1 nM. `O=S(=O)(c1ccc(-c2ccnc(N3CC4(CNC4)C3)c2)cc1)N1CC[C@@H](Nc2ccc(C(F)(F)F)cn2)[C@@H](O)C1` [Compound 141] was tested, and the IC50 was 1 to 10 nM. In the case of `NC(=O)c1cc(-c2ccc(S(=O)(=O)N3CC[C@@H](Nc4ccc(C(F)(F)F)cn4)[C@@H](O)C3)cc2)cc(O)n1` [Compound 203], the IC50 is reported as < 1 nM. With `Nc1nc2ccc(-c3ccc(S(=O)(=O)N4CC[C@@H](Nc5ccc(C(F)(F)F)cn5)[C@@H](O)C4)cc3)cc2c(=O)[nH]1` [Example 30, 2-amino-6-(4-(((3S,4R)-3-hydroxy-4-((5-(trifluoromethyl)pyridin-2-yl)amino)piperidin-1-yl)sulfonyl)phenyl)quinazolin-4(3H)-one] the IC50 was < 1 nM. For `NC(=O)Cc1cc(-c2ccc(S(=O)(=O)N3CC[C@@H](Nc4ccc(C(F)(F)F)cn4)[C@@H](O)C3)cc2)ccn1` [Compound 207], the IC50 was 1 to 10 nM. With `Cn1nc(N)c2cc(-c3ccc(S(=O)(=O)N4CC[C@@H](Nc5ccc(C(F)(F)F)cn5)[C@@H](O)C4)cc3)ccc21` [Example 49, (3S,4R)-1-((4-(3-amino-1-methyl-1H-indazol-5-yl)phenyl)sulfonyl)-4-((5-(trifluoromethyl)pyridin-2-yl)amino)piperidin-3-ol] the IC50 was < 1 nM. For `O=C1Cc2ccc(-c3ccc(S(=O)(=O)N4CC[C@@H](Nc5ccc(C(F)(F)F)cn5)[C@@H](O)C4)cc3)cc2CN1` [Example 8, 7-(4-(((3S,4R)-3-hydroxy-4-((5-(trifluoromethyl)pyridin-2-yl)amino)piperidin-1-yl)sulfonyl)phenyl)-1,4-dihydroisoquinolin-3(2H)-one], the IC50 was < 1 nM. Compound `CN(c1ccc(-c2ccc(S(=O)(=O)N3CC[C@@H](Nc4ccc(C(F)(F)F)cn4)[C@@H](O)C3)cc2)cn1)C1CCC1` [Compound 102] has an IC50 of 1 to 10 nM. For `COC(=O)c1cc(-c2ccc(S(=O)(=O)N3CC[C@@H](Nc4ccc(C(F)(F)F)cn4)[C@@H](O)C3)cc2)ccn1` [Example 39, Methyl 4-(4-(((3S,4R)-3-hydroxy-4-((5-(trifluoromethyl)pyridin-2-yl)amino)piperidin-1-yl)sulfonyl)phenyl)picolinate], the IC50 was < 1 nM. For `COc1cnc(C)cc1-c1ccc(S(=O)(=O)N2CC[C@@H](Nc3ccc(C(F)(F)F)cn3)[C@@H](O)C2)cc1` [Compound 156], the IC50 was < 1 nM. With `O=C1Nc2ncc(-c3ccc(S(=O)(=O)N4CC[C@@H](Nc5ccc(C(F)(F)F)cn5)[C@@H](O)C4)cc3)cc2C12CC2` [Compound 212] the IC50 was < 1 nM. Compound `CN1CC(N(C)c2ccc(-c3ccc(S(=O)(=O)N4CC[C@@H](Nc5ccc(C(F)(F)F)cn5)[C@@H](O)C4)cc3)cn2)C1` [Compound 98] has an IC50 of 1 to 10 nM. In the case of `COc1cc(-c2ccc(S(=O)(=O)N3CC[C@@H](Nc4ccc(C(F)(F)F)cn4)[C@@H](O)C3)cc2)ccn1` [Compound 165], the IC50 is reported as 1 to 10 nM. `Cc1cncc(-c2ccc(S(=O)(=O)N3CC[C@@H](Nc4ccc(C(F)(F)F)cn4)[C@@H](O)C3)cc2)c1` [Compound 152] was tested, and the IC50 was < 1 nM. For `NC(=O)c1ncc(-c2ccc(S(=O)(=O)N3CC[C@@H](Nc4ccc(C(F)(F)F)cn4)[C@@H](O)C3)cc2)[nH]1` [Compound 197], the IC50 was 1 to 10 nM.
